Usually IC50 stands for the midpoint of a concentration-inhibition curve.

One experiment addresses T1, human EphB4 receptor (Homo sapiens, UniProt P54760).
T1 construct: made in house; host or cells: Sf9 or Sf21 (baculovirus)
T1 sequence (P54760 566-987): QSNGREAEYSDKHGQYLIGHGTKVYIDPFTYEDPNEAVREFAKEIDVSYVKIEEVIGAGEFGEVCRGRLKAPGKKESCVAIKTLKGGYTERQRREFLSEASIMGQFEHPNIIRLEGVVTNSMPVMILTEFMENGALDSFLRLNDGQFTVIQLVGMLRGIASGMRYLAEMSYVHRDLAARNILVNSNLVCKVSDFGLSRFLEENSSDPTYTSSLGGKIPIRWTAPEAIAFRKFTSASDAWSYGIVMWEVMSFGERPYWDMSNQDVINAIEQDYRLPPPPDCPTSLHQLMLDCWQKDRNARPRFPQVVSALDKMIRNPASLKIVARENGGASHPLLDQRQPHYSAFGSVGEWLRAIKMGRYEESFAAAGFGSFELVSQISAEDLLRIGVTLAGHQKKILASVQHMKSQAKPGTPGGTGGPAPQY
Briefly: EphB4 kinase assay, GST-EphB, 33P incorporation into poly(Glu,Tyr). In kind it is biochemical. The settings on record: Table 4; read-out: EphB4, activity (IC50 for kinase inhibition). The text has this: EphB4: Production and measure of enzymatic activity: Generation of Bac-to-Bac™ (Initrogen Life Technologies, Basel, Switzerland) GST-fusion expression vectors: Entire cytoplasmatic coding regions of the EphB-class are amplified by PCR from cDNA libraries derived from human placenta or brain, respectively. Recombinant baculovirus are generated that express the amino acid region 566-987 of the human EphB4 receptor (SwissProt Database, Accession No. P54760). GST sequence is cloned into pFastBac1® vector (Invitrogen Life Technologies, Basel, Switzerland) and PCR amplified. cDNAs encoding EphB4-receptor domains, respectively, are cloned in frame 3′prime to the GST sequence into this modified FastBac1 vector to generate pBac-to-Bac™ donor vectors. Single colonies arising from the transformation are inoculated to give overnight cultures for small scale plasmid preparation. […] By automated sequencing the inserts and approximately 50 bp of the flanking vector sequences are confirmed on both strands. Production of viruses: Viruses for each of the kinases are made according to the protocol supplied by GIBCO if not stated otherwise. In brief, transfer vectors containing the kinase domains are transfected into the DH10Bac cell line (GIBCO) and plated on selective agar plates. Colonies without insertion of the fusion sequence into the viral genome (carried by the bacteria) are blue. Single white colonies are picked and viral DNA (bacmid) isolated from the bacteria by standard plasmid purification procedures. Sf9 cells or Sf21 cells are then transfected in 25 cm2 flasks with the viral DNA using Cellfectin reagent according to the protocol. Purification of GST-tagged kinases: The centrifuged cell lysate is loaded onto a 2 mL glutathione-sepharose column (Pharmacia) and washed three times with 10 mL of 25 mM Tris-HCl, pH 7.5, 2 mM EDTA, 1 mM DTT, 200 mM NaCl. The GST-tagged proteins are then eluted by 10 applications (1 mL each) of 25 mM Tris-HCl, pH 7.5, 10 mM reduced-glutathione, 100 mM NaCl, 1 mM DTT, 10% Glycerol and stored at −70° C. Protein kinase assays: The activities of protein kinases are assayed in the presence or absence of inhibitors, by measuring the incorporation of 33P from [γ33P]ATP into a polymer of glutamic acid and tyrosine (poly(Glu,Tyr)) as a substrate. The kinase assays with purified GST-EphB (30 ng) are carried out for 15-30 min at ambient temperature in a final volume of 30 μL containing 20 mM Tris.HCl, pH 7.5, 10 mM MgCl2, 3-50 mM MnCl2, 0.01 mM Na3VO4, 1% DMSO, 1 mM DTT, 3 μg/mL poly(Glu,Tyr) 4:1 (Sigma; St. Louis, Mo., USA) and 2.0-3.0 μM ATP (γ-[33P]-ATP 0.1 μCi). The assay is terminated by the addition of 20 μL of 125 mM EDTA. Subsequently, 40 μl of the reaction mixture are transferred onto Immobilon-PVDF membrane (Millipore, Bedford, Mass., USA) previously soaked for 5 min with methanol, rinsed with water, then soaked for 5 min with 0.5% H3PO4 and mounted on vacuum manifold with disconnected vacuum source. After spotting all samples, vacuum is connected and each well rinsed with 200 μl 0.5% H3PO4. Membranes are removed and washed 4× on a shaker with 1.0% H3PO4, once with ethanol. Membranes are counted after drying at ambient temperature, mounting in Packard TopCount96-well frame, and addition of 10 μL/well of Microscint™ (Packard). IC50 values are calculated by linear regression analysis of the percentage inhibition of each compound in duplicate, at four concentrations (usually 0.01, 0.1, 1 and 10 μM). One unit of protein kinase activity is defined as 1 nmole of 33P ATP transferred from [γ33P] ATP to the substrate protein per minute per mg of protein at 37° C. Compounds of formula I show EphB4 inhibition down to 10 nM, preferably IC50 values between 0.01-1.0 μM.
As for `Nc1c(-c2cccc(O)c2)cnc2c(-c3cccnc3)cnn12` [Example 46, 3-[7-Amino-3-pyridin-3-yl-pyrazolo[1,5-a]pyrimidin-6-yl]-phenol], the IC50 was below 10000 nM.

Consider `CN1CCN(c2cccc(-c3cnn4c(N)c(-c5cccc(O)c5)cnc34)c2)CC1` [Example 29, 3-{7-Amino-3-[3-(4-methyl-piperazin-1-yl)-phenyl]-pyrazolo[1,5-a]pyrimidin-6-yl}-phenol], for which the IC50 was below 10000 nM.

Still in this experiment, the particulars now being: Table 5; read-out: EphB4, IC50 class.
In the case of `Cc1nc2c(-c3ccc(N4CCN(C)CC4)cc3)cnn2c(N)c1-c1cccc(Cl)c1` [Example 73, 6-(3-Chloro-phenyl)-5-methyl-3-[4-(4-methyl-piperazin-1-yl)-phenyl]-pyrazolo[1,5-a]pyrimidin-7-ylamine], the IC50 is below 1000 nM.

`COc1cc(N2CCN(C)CC2)ccc1-c1cnn2c(N)c(-c3cccc(O)c3)cnc12` [Example 76, 3-{7-Amino-3-[2-methoxy-4-(4-methyl-piperazin-1-yl)-phenyl]-pyrazolo[1,5-a]pyrimidin-6-yl}-phenol]: the IC50 was below 1000 nM.

For the molecule `COc1ccc(-c2cnn3c(N)c(-c4cccc(Cl)c4)c(C)nc23)cc1OC` [Example 93, 6-(3-Chloro-phenyl)-3-(3,4-dimethoxy-phenyl)-5-methyl-pyrazolo[1,5-a]pyrimidin-7-ylamine], the IC50 is below 1000 nM.

For the molecule `COc1ccc(-c2cnn3c(N)c(-c4ccc(F)c(Cl)c4)c(C)nc23)cc1` [Example 95, 6-(3-Chloro-4-fluoro-phenyl)-3-(4-methoxy-phenyl)-5-methyl-pyrazolo[1,5-a]pyrimidin-7-ylamine], the IC50 was below 1000 nM.

In the case of `Cc1nc2c(-c3cccc(N4CCN(C)CC4)c3)cnn2c(N)c1-c1ccc(F)c(F)c1` [Example 98, 6-(3,4-Difluoro-phenyl)-5-methyl-3-[3-(4-methyl-piperazin-1-yl)-phenyl]-pyrazolo[1,5-a]pyrimidin-7-ylamine], the IC50 was below 1000 nM.

`Cc1nc2c(-c3cccc(N4CCN(C)CC4)c3)cnn2c(N)c1-c1cccc(Br)c1` [Example 84, 6-(3-Bromo-phenyl)-5-methyl-3-[3-(4-methyl-piperazin-1-yl)-phenyl]-pyrazolo[1,5-a]pyrimidin-7-ylamine]: the IC50 was below 1000 nM.

Turning to `Cc1nc2c(-c3cccc(N4CCN(C)CC4)c3)cnn2c(N)c1-c1ccc(F)cc1` [Example 80, 6-(4-Fluoro-phenyl)-5-methyl-3-[3-(4-methyl-piperazin-1-yl)-phenyl]-pyrazolo[1,5-a]pyrimidin-7-ylamine], the IC50 was below 1000 nM.

As to `Cc1nc2c(-c3cccc(N4CCN(CCO)CC4)c3)cnn2c(N)c1-c1ccc(F)c(F)c1` [Example 101, 2-(4-{3-[7-Amino-6-(3,4-difluoro-phenyl)-5-methyl-pyrazolo[1,5-a]pyrimidin-3-yl]-phenyl}-piperazin-1-yl)-ethanol], the IC50 was below 1000 nM.

For the molecule `COc1ccc(-c2cnn3c(N)c(-c4ccc(F)c(Cl)c4)c(C)nc23)cc1OC` [Example 94, 6-(3-Chloro-4-fluoro-phenyl)-3-(3,4-dimethoxy-phenyl)-5-methyl-pyrazolo[1,5-a]pyrimidin-7-ylamine], the IC50 was below 1000 nM.

Take `CN1CCN(c2cccc(-c3cnn4c(N)c(-c5cccc(Br)c5)cnc34)c2)CC1` [Example 86, 6-(3-Bromo-phenyl)-3-[3-(4-methyl-piperazin-1-yl)-phenyl]-pyrazolo[1,5-a]pyrimidin-7-ylamine]: the IC50 lay in the range of 1000 to 10000 nM.

For `Cc1nc2c(-c3cccc(N4CCN(C)CC4)c3)cnn2c(N)c1-c1cccc(Cl)c1` [Example 72, 6-(3-Chloro-phenyl)-5-methyl-3-[3-(4-methyl-piperazin-1-yl)-phenyl]-pyrazolo[1,5-a]pyrimidin-7-ylamine], the IC50 is below 1000 nM.

As to `Cc1nc2c(-c3cccc(N4CCC(N5CCCC5)CC4)c3)cnn2c(N)c1-c1ccc(F)cc1` [Example 103, 6-(4-Fluoro-phenyl)-5-methyl-3-[3-(4-pyrrolidin-1-yl-piperidin-1-yl)-phenyl]-pyrazolo[1,5-a]pyrimidin-7-ylamine], the IC50 is below 1000 nM.

Source of the values: patent publication US20090099167A1, “Organic compounds” (Novartis Institutes for Biomedical Research, priority 2004, published 2009).
